# Measured values: patent US20230181556A1, “USE OF PSYCHOTROPIC DRUGS FOR THE TREATMENT OF CORONAVIRUS INFECTIONS” (priority 2020, published 2023)
# Entries after “also recorded” stand apart in the source; their conditions may differ.
# Columns and labels:
# [1] = test system: viruses as listed per drug; details: virus or effect named in the literature; cited from earlier work
# Vero-E6 cells = test: cytotoxicity in mock infected cells; assay type: cell-based; details: same experiment (10 μM, 5 μM and 2 μM)
# Description: One day prior to the assay, Vero-E6 cells (ATCC® CRL-1586) were plated in a 96-wells flat bottom tissue culture treated plate at a density of 2×10^4 cells/well. On the day of the assay, Vero-E6 cells were pre-treated with the different concentration (i.e. 10 μM, 5 μM and 2 μM) of the indicated drugs diluted in Dulbecco's Modified Eagles Medium (DMEM). After 1 h, the cells were infected with 50 μl of a viral inoculum at 1×10^3 TCID50/ml and incubated for 2 h at 37° C. to allow infection. Then, the virus-drug mixture was removed, cells were rinsed 3 times with PBS and were further cultured with fresh drug-containing medium (DMEM 5% FBS) for 3 days until microscopic examination was performed. Cytotoxicity of the tested drugs were determined in the same experiment in mock infected cells. The half maximal inhibitory concentration (IC50) were analyzed by non-linear regression using a four-parameter dosage-response variable slope model with the GraphPad Prism 8.0.2 software (GraphPad Software, USA).
# phospholipidosis = details: cited from earlier work
# [2] = under 20 μM concentrations; Hou et al.; cited from earlier work
# [3] = molecular target: spike protein-ACE2 interaction (Homo sapiens, UniProt Q9BYF1); details: Hou et al., Chemico-Biological Interactions 338 (2021) 109420; cited from earlier work
# Chain of spike protein-ACE2 interaction (Q9BYF1 18-805): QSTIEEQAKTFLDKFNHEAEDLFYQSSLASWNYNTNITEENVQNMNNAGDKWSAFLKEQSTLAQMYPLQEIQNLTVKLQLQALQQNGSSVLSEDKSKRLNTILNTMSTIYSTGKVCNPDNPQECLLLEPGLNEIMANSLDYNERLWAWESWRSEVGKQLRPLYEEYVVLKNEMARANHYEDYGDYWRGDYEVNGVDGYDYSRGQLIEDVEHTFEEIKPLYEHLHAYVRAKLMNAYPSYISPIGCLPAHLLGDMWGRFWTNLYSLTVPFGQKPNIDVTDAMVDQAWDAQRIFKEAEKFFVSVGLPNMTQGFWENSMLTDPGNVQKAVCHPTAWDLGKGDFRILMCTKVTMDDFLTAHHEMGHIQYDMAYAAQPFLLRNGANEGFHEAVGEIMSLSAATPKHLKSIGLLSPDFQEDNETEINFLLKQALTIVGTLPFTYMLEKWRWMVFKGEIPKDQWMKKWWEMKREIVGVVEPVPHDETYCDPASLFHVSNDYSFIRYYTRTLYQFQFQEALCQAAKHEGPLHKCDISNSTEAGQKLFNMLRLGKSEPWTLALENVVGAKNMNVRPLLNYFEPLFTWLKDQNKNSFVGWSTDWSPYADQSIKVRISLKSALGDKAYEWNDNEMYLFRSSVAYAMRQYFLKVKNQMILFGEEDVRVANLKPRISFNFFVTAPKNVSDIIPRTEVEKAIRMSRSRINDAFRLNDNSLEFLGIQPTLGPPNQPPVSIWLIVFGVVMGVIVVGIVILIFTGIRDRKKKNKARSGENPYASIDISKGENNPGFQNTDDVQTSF
smiles,measurement,setting,value
O=C(O)COCCN1CCN(C(c2ccccc2)c2ccc(Cl)cc2)CC1 (stereo not drawn) [Cetirizine],Examples of published in vitro antiviral activity,[1],HRV (Antiviral
CN1CCCC(n2nc(Cc3ccc(Cl)cc3)c3ccccc3c2=O)CC1 (stereo not drawn) [Azelastine],Cytotoxicity,Vero-E6 cells,not found to be cytotoxic
CCN(CC)CCCC(C)Nc1ccnc2cc(Cl)ccc12 (stereo not drawn) [Chloroquine],"PLD, known",phospholipidosis,PLD compound
same,Examples of published in vitro antiviral activity,[1],"MERS, SARS,; also recorded: Filovirus"
Clc1ccc(C(OCCN2CCCCC2)c2ccccc2)cc1 (stereo not drawn) [Cloperastine],Examples of published in vitro antiviral activity,[1],SARS-CoV-2
CN(C)CCCN1c2ccccc2CCc2ccc(Cl)cc21 [Clomipramine],Examples of published in vitro antiviral activity,[1],"MERS, SARS"
O=C(CCCN1CCC(O)(c2ccc(Cl)cc2)CC1)c1ccc(F)cc1 [Haloperidol],Examples of published in vitro antiviral activity,[1],SARS-CoV-2
CN(C)CCOC(C)(c1ccccc1)c1ccc(Cl)cc1 (stereo not drawn) [Chlorphenoxamine],Examples of published in vitro antiviral activity,[1],"MERS, SARS"
COc1ccc2[nH]cc(CCNC(C)=O)c2c1 [Melatonin],Examples of published in vitro antiviral activity,[1],Possible roles
CN[C@H]1CC[C@@H](c2ccc(Cl)c(Cl)c2)c2ccccc21 [Sertraline],"PLD, known",phospholipidosis,PLD compound
same,Examples of published in vitro antiviral activity,[1],Ebola virus; also recorded: Zika Virus; also recorded: HIV in vivo
CC(CN1c2ccccc2Sc2ccccc21)N(C)C (stereo not drawn) [Promethazine],Examples of published in vitro antiviral activity,[1],Ebola (Sci Transl Med
same,Cytotoxicity,Vero-E6 cells,not found to be cytotoxic
CCN(CC)CCOc1ccc(C(=C(Cl)c2ccccc2)c2ccccc2)cc1 [Clomifene],Examples of published in vitro antiviral activity,[1],"Ebola, HCV"
CCN(CCO)CCCC(C)Nc1ccnc2cc(Cl)ccc12 (stereo not drawn) [Hydroxyl-chloroquine],Examples of published in vitro antiviral activity,[1],SARS-Cov-2
CN(C)CCCN1c2ccccc2Sc2ccc(Cl)cc21 [Chlorpromazine],"PLD, known",phospholipidosis,PLD agent
same,Examples of published in vitro antiviral activity,[1],"MERS, SARS"
Clc1ccc2c(c1)CCc1cccnc1C2=C1CCNCC1 [Desloratadine],Cytotoxicity,[2],No cytotoxicity was observed
same,Cytotoxicity,Vero-E6 cells,not found to be cytotoxic
CCOC(=O)N1CCC(=C2c3ccc(Cl)cc3CCc3cccnc32)CC1 [Loratadine],Cytotoxicity,[2],No cytotoxicity was observed
same,block of spike protein-ACE2 interaction,[3],efficient to block spike protein-ACE2 interaction
